Laboratory results taken from the NIST ThermoML archive (doi:10.1021/je060271a).

Conditions: 283.15 K, Liquid, Vibrating tube method

CCCCCCCC(=O)OCC(COC(=O)CCCCCCC)(COC(=O)CCCCCCC)COC(=O)CCCCCCC [pentaerythritol tetraoctanoate]
Conditions | mass density [kg/m3]
16618 kPa | 979.5
16646 kPa | 979.5
16674 kPa | 979.5
16703 kPa | 979.6
16736 kPa | 979.5
16765 kPa | 979.6
16794 kPa | 979.5
16827 kPa | 979.7
16856 kPa | 979.7
16890 kPa | 979.7
16919 kPa | 979.7
16949 kPa | 979.6
16980 kPa | 979.7
17009 kPa | 979.6
17039 kPa | 979.7
17073 kPa | 979.7
17102 kPa | 979.7
17138 kPa | 979.7
17168 kPa | 979.9
17198 kPa | 979.9
17227 kPa | 979.7
17264 kPa | 979.9
17293 kPa | 979.9
17323 kPa | 979.8
17360 kPa | 979.9
17390 kPa | 979.9
17427 kPa | 979.9
17458 kPa | 980
17488 kPa | 980
17519 kPa | 979.9
17556 kPa | 980
17588 kPa | 980
17619 kPa | 980
17657 kPa | 980
17688 kPa | 980.1
17726 kPa | 980.1
17758 kPa | 980.1
17790 kPa | 980.1
17823 kPa | 980.2
17862 kPa | 980.2
17894 kPa | 980.2
17926 kPa | 980.1
17966 kPa | 980.2
17998 kPa | 980.1
18037 kPa | 980.2
18070 kPa | 980.2
18103 kPa | 980.3
18137 kPa | 980.4
18177 kPa | 980.3
18210 kPa | 980.4
18244 kPa | 980.4
18285 kPa | 980.3
18319 kPa | 980.3
18360 kPa | 980.5
18394 kPa | 980.4
18429 kPa | 980.3
18470 kPa | 980.4
18504 kPa | 980.5
18539 kPa | 980.6
18581 kPa | 980.6
18616 kPa | 980.6
18652 kPa | 980.5
18694 kPa | 980.6
18731 kPa | 980.6
18766 kPa | 980.8
18802 kPa | 980.7
18846 kPa | 980.7
18882 kPa | 980.7
18919 kPa | 980.7
18963 kPa | 980.7
18999 kPa | 980.8
19044 kPa | 980.7
19081 kPa | 980.7
19118 kPa | 980.8
19155 kPa | 980.8
19200 kPa | 980.9
19238 kPa | 980.9
19276 kPa | 980.8
19320 kPa | 980.9
19357 kPa | 980.9
19394 kPa | 980.9
19437 kPa | 981
19472 kPa | 980.9
19537 kPa | 981
19587 kPa | 981
19666 kPa | 981.2
19710 kPa | 981.2
19746 kPa | 981.2
19773 kPa | 981.1
19802 kPa | 981.2
19829 kPa | 981.2
19855 kPa | 981.2
19888 kPa | 981.2
19915 kPa | 981.2
19942 kPa | 981.4
19976 kPa | 981.2
20003 kPa | 981.3
20036 kPa | 981.3
20064 kPa | 981.4
20092 kPa | 981.3
20120 kPa | 981.4
20156 kPa | 981.4
20180 kPa | 981.4
20215 kPa | 981.4
20244 kPa | 981.3
20280 kPa | 981.5
20310 kPa | 981.5
20341 kPa | 981.5
20376 kPa | 981.5
20397 kPa | 981.5
20414 kPa | 981.5
20435 kPa | 981.5
20452 kPa | 981.6
20469 kPa | 981.5
20490 kPa | 981.5
20508 kPa | 981.6
20525 kPa | 981.6
20543 kPa | 981.7
20563 kPa | 981.5
20581 kPa | 981.4
20598 kPa | 981.6
20619 kPa | 981.6
20637 kPa | 981.5
20658 kPa | 981.6
20676 kPa | 981.7
20694 kPa | 981.6
20715 kPa | 981.7
20733 kPa | 981.6
20751 kPa | 981.7
20769 kPa | 981.6
20790 kPa | 981.8
20808 kPa | 981.7
20830 kPa | 981.8
20848 kPa | 981.6
20866 kPa | 981.7
20884 kPa | 981.7
20905 kPa | 981.7
20923 kPa | 981.9
20942 kPa | 981.7
20964 kPa | 981.8
20982 kPa | 981.9
21004 kPa | 981.8
21022 kPa | 981.9
21040 kPa | 981.9
21059 kPa | 981.9
21081 kPa | 981.8
21099 kPa | 981.9
